ChEMBL document CHEMBL1159004, “Four new antibacterial sesterterpenes from a marine sponge of the genus Luffariella” (1992)

Columns and labels:
Assay type in all cases: functional
Micrococcus luteus = assay: Antibacterial activity against Micrococcus luteus ATCC 9341 by TLC bioautographic test
Bacillus subtilis = assay: Antibacterial activity against Bacillus subtilis ATCC […] by TLC bioautographic test
Escherichia coli = assay: Antibacterial activity against Escherichia coli ATCC 25922 by TLC bioautographic test

SMILES	Activity (Micrococcus luteus) [µg]	Activity (Bacillus subtilis) [µg]	Activity (Escherichia coli) [µg]
CC(=O)OC/C(=C\C[C@H]1OC(=O)C=C1CO)CC/C=C(\C)CCC1=C(C)CCCC1(C)C	8	2	–
CC1=C(CC/C(C)=C/CC/C(=C/C[C@H]2OC(=O)CC2CO)CO)C(C)(C)CCC1 (stereo partly drawn)	5	–	1
CC(=O)OC/C(=C\C[C@H]1OC(=O)CC1CO)CC/C=C(\C)CCC1=C(C)CCCC1(C)C (stereo partly drawn)	3	11	–
CC1=C(CC/C(C)=C/CC/C(C=O)=C\C[C@H]2OC(=O)C=C2CO)C(C)(C)CCC1	4	4	–
